Measurements from patent US5340587A, “Liposome/bronchodilator method & System” (priority 1989, dated 1994).
Counter-ions that a name gives are not always drawn.

Assays:
[1] = Table 1; cited from earlier work
[2] = in vivo
Description: This liposome-protective effect is illustrated in FIGS. 1A and 1B, which graph percent increases in heart rate, above a pre-drug level, in animals receiving a β2 -agonist in free (open squares), or liposomal form. The two liposomal formulations are characterized by relatively short drug-release half life (open circles, FIG. 1A), or a relatively long drug-release half life (closed circles, FIG. 1B). Heart rate was measured at 15, 45, 75, and 105 minutes after drug administration, and immediately before the animal received a bronchoconstricting dose of histamine by inhalation. […] With liposome-encapsulated drug, however, the increase in heart rate was substantially lower and more constant over the test period.

[3] = blood plasma MPS levels after inhalation (FIG. 2); format: in vivo; details: inhaled or intranasal
[4] = test system: acetylcholine-induced bronchoconstriction; assay: protection against acetylcholine-induced bronchoconstriction (FIG. 4); format: in vivo, mongrel dogs; details: inhalation, high dose MPS, about four hours (FIG. 4)
[5] = test system: histamine-induced bronchoconstriction; assay: determination of therapeutic dose of free drug against histamine-induced bronchoconstriction; format: in vivo, guinea pigs; details: free form, inhalation
Description: The therapeutic doses of terbutaline sulfate, and salbutamol sulfate which were used in the present study were determined as follows. […] These drug doses, adjusted for the body weight of the test animal, were administered by inhalation in free form, and their effects on the histamine-induced bronchoconstriction were determined as above. MPS was also tested in the initial drug-dose study. […] The therapeutic doses per animal determined from the study were: 39 μg MPS (2× recommended dose); 15 μg terbutaline (2× recommended dose); and 1.5 μg salbutamol (1× recommended dose). The therapeutic dose of MPS is approximately 60 times less than the dose used in the experiments reported above, and in Example VI.

[6] = test system: bronchoconstriction; details: free vs liposomal-entrapped MPS; cited from earlier work
[7] = in vivo; cited from earlier work
[8] = test system: histamine-induced bronchoconstriction; assay: histamine-induced bronchoconstriction: airway resistance and lung compliance (FIGS. 5, 6); format: in vivo, guinea pigs; details: terbutaline, relative to baseline
Description: The study described in Example VII illustrates the increased protection, at extended time periods, achievable with liposomal drug administration. Briefly summarizing the Example VII study, terbutaline sulfate or salbutamol sulfate, in either free or liposomal form, was administered by inhalation. At several times after drug administration, the test animal was challenged with aerosolized histamine, to induce bronchoconstriction. At the beginning of each test, prior to administration of the β2 -agonist, and immediately after each histamine dose, airway resistance and lung compliance in the animal were measured. Airway resistance, which is measured at points of equal lung volume during the breathing cycle, provides a measure of the resistance to gas flow through the large air passages of the lung. Lung compliance, which is measured at zero flow points in the breathing cycle, reflects the pressure changes required to effect the lung volume change over the breathing cycle. The resistance and compliance values determined at the beginning of the test serve as baseline values for determining the percentage changes in resistance and compliance, in response to histamine-induced bronchoconstriction.
Each time point was calculated as the difference in airway resistance shortly after histamine administration and at the beginning of the test (baseline value) divided by the baseline value. […]

| Compound | Tc (transition temperature) [1] [C.°] | protection against bronchoconstriction at the recommended dose [5] | therapeutic dose per animal [5] [µg] | further results |
| --- | --- | --- | --- | --- |
| CCCCCCCCCCCCCC(=O)OC[C@H](COP(=O)([O-])OCC[N+](C)(C)C)OC(=O)CCCCCCCCCCCCC [DMPC, dimyristoyl phosphatidyl choline] | 23 | – | – | – |
| CCCCCCCC/C=C\CCCCCCCC(=O)OCC(COP(=O)([O-])OCC[N+](C)(C)C)OC(=O)CCCCCCC/C=C\CCCCCCCC (stereo not drawn) [DOPC, dioleoyl phosphatidyl choline] | -22 | – | – | – |
| CCCCCCCCCCCCCCCC(=O)OC[C@H](COP(=O)([O-])OCC[N+](C)(C)C)OC(=O)CCCCCCCCCCCCCCC [DPPC, dipalmitoyl phosphatidyl choline] | 41 | – | – | – |
| CCCCCCCCCCCCCCCCCC(=O)OCC(COP(=O)([O-])OCC[N+](C)(C)C)OC(=O)CCCCCCCCCCCCCCCCC (stereo not drawn) [DSPC, distearoyl phosphatidyl choline] | 55 | – | – | – |
| CC(C)NCC(O)c1cc(O)cc(O)c1 (stereo not drawn) [MPS, metaproteranol sulfate] | – | necessary to double the recommended dose in order to achieve effective protection | 39 | increase in heart rate [2]: relatively high initial heart rate increase, with a slow decline over the test period; Cmax ([3]; free drug within 15 minutes, read-out: blood plasma MPS level, high): ~80 ng/mL; concentration at 2 h ([3]; over a two-hour period, read-out: blood plasma MPS level at end of test period): ~20 ng/mL; percent protection from ACH-induced bronchoconstriction [4]: substantially the same degree of protection against ACH-induced bronchoconstriction; percent protection against bronchoconstriction [6]: about the same for both free drug and liposomal-entrapped drug; plasma level course [7]: rapid drop in plasma levels |
| CC(C)(C)NCC(O)c1ccc(O)c(CO)c1 (stereo not drawn) [salbutamol sulfate] | – | good protection against bronchoconstriction | 1.5 | – |
| CC(C)(C)NCC(O)c1cc(O)cc(O)c1 (stereo not drawn) [terbutaline sulfate] | – | necessary to double the recommended dose in order to achieve effective protection | 15 | increase in airway resistance, end of test period ([8]; 115 minutes (FIG. 5A)): over 160%; increase in airway resistance, initial ([8]; first histamine challenge (FIG. 5A)): 60% |
